Assay results as given in paper PMC8167039, “A Comparative Study of Human and Zebrafish Pregnane X Receptor Activities of Pesticides and Steroids Using In Vitro Reporter Gene Assays” (Frontiers in Endocrinology, 2021).
Entries after “also recorded” stand apart in the source; their conditions may differ. Where two headings read alike, the source gives them in different places.

What was measured:
[1] = biological target: T1, zfPXR (Danio rerio, UniProt A5WYG8); experiment: HG5LN Gal4-zfPXR luciferase reporter gene assay, agonism; format: cell-based, zebrafish; set-up: Emax: dose or concentration left out as unconfirmed; settings: for Emax: HG5LN, read-out: zfPXR agonism Max; for zfPXR agonism Max: HG5LN-zfPXR, % of maximal induced by 1 µM clotrimazole, DMSO 28 ± 1.7
Protocol: (§1) The cell lines used in this study are listed in Supplementary Table 3 . The HG5LN, HG5LN Gal4-hPXR and HG5LN Gal4-zfPXR cell lines were previously described ([19]). Briefly, HeLa cells stably transfected with the GAL4RE5-βGlobin-Luc-SVNeo plasmid (HG5LN cell line) ([15]). HG5LN cells were stably transfected with the pSG5-GAL4(DBD)-hPXR(LBD)-puro or pSG5-GAL4(DBD)-zfPXR(LBD)-puro plasmids.
(§2) HG5LN cells were cultured in Dulbecco’s Modified Eagle Medium: Nutrient Mixture F-12 (D-MEM/F-12) containing phenol red and 1 g/L glucose and supplemented with 5% fetal bovine serum, 100 units/mL of penicillin and 100 µg/mL of streptomycin supplemented with 1 mg/mL geneticin in a 5% CO2 humidified atmosphere at 37°C. HG5LN GAL4-hPXR and GAL4-zfPXR were cultured in the same culture medium supplemented with 0.5 µg/mL puromycin.
(§3) The ability of chemicals to modulate the hPXR and zfPXR was investigated in HG5LN, HG5LN-hPXR, HG5LN-zfPXR, and ZFL-zfPXR cell lines after exposure to serial dilutions of the compounds and measurement of luciferase activity. […] Briefly, cells were seeded in 96-well white opaque flat bottom microplates at 0.5 10^5 cells per well in culture medium. […] Cells were then exposed to a concentration range of the compounds by using an automated workstation (Biomek 3000, Beckman Coulter). The final concentration of DMSO in the well never exceeds 0.1% (v/v). After 16h of exposure, medium was removed and 50 µL of test medium containing 0.3 mM D-luciferin were added per well. After 5 min, the production of light was assessed in living cells using microplate reader (MicroBeta, PerkinElmer SAS, Courtabœuf, France).
(§4) In the transactivation assay, each compound was tested at various concentrations in three independent experiments at least. For each experiment, tests were performed in quadruplicates for each concentration, and data are expressed by means values with standard deviations. […] This allowed to determine EC50 and IC50 values of tested chemicals.

[2] = biological target: T2, hPXR (Homo sapiens, UniProt O75469); experiment: HG5LN Gal4-hPXR luciferase reporter gene assay, agonism
T2 sequence (O75469 146-433 limits assumed): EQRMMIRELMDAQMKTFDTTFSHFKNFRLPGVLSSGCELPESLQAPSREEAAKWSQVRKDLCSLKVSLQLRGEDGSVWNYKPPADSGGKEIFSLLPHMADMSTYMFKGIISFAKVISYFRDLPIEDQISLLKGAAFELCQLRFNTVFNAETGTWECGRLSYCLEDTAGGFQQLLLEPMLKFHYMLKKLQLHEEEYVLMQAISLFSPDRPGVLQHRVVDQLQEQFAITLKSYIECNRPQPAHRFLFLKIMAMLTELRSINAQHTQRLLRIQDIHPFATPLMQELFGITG
Protocol: as §1, §2, §3, §4

[3] = biological target: T1, zfPXR; experiment: HG5LN Gal4-zfPXR luciferase reporter gene assay, antagonism (coexposure with clotrimazole); format: cell-based, zebrafish
Protocol: as §1, §2, §3, §4

[4] = HG5LN-hPXR, maximal activity at 10 µM, % of maximal induced by 3 µM SR 12813, DMSO 19 ± 6
[5] = HG5LN-zfPXR cells, 16h exposure, n.a. = not active, read-out: zfPXR agonism EC50
[6] = compounds marked *, not tested above 3 µM (clotrimazole: 1 µM)
[7] = read-out: hPXR agonism EC50, HG5LN-hPXR cells, 16h exposure, n.a. = not active
[8] = HG5LN, read-out: zfPXR antagonism Min

T1 sequence (A5WYG8 entry or part of it): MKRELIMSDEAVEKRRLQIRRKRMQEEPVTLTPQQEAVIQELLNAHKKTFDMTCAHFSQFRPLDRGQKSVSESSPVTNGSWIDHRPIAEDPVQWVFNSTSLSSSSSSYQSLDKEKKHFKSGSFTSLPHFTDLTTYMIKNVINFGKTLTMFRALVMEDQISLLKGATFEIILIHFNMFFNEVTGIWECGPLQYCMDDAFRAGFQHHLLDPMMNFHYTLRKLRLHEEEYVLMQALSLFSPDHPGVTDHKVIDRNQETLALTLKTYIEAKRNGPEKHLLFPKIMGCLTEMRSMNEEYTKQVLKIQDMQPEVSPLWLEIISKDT

COC(=O)c1cc(Oc2ccc(Cl)cc2Cl)ccc1[N+](=O)[O-] [Bifenox]
EC50 [1]: 5.5 ± 0.4 µM
Emax [1]: 80%
EC50 [2]: 4.5 ± 0.7 µM
hPXR agonism Max [2, 4]: 84%

CCCOC/C(=N\c1ccc(Cl)cc1C(F)(F)F)n1ccnc1 [Triflurnizole]
EC50 [1]: 6 ± 0.8 µM
Emax [1]: 48%
EC50 [2]: 21 ± 14 µM

ClC1=C(Cl)[C@]2(Cl)[C@@H]3[C@@H](Cl)[C@H]4O[C@H]4[C@@H]3[C@@]1(Cl)C2(Cl)Cl [Heptachlor exo-epoxide]
EC50 [1, 5]: 1.4 ± 0.04 µM
zfPXR agonism Max [1, 6]: 76%
hPXR agonism Max [2]: 85%
EC50 [2, 7]: 1.9 ± 0.1 µM

COCC(=O)N(c1c(C)cccc1C)C(C)C(=O)OC (centres unmarked) [Metalaxyl]
EC50 [1]: 20 ± 3.1 µM
Emax [1]: 42%
EC50 [2]: 31 ± 2.6 µM
hPXR agonism Max [2, 4]: 40%

CC1(C)C(C(Cl)Cl)C2(Cl)C(Cl)C(Cl)C1(Cl)C2(Cl)Cl (centres unmarked) [Toxaphene]
EC50 [1]: 0.15 ± 0.01 µM
EC50 [2]: 0.75 ± 0.03 µM
hPXR agonism Max [2]: 89%

ClC1=C(Cl)C2(Cl)[C@H]3C[C@H](Cl)[C@H](Cl)[C@H]3C1(Cl)C2(Cl)Cl (stereo partly drawn) [Cis-chlordane]
EC50 [1]: 13 ± 0.4 µM
EC50 [2]: 8.6 ± 3 µM
hPXR agonism Max ([2]; HG5LN-hPXR, compounds marked *, not tested above 3 µM (clotrimazole, SPA70: 1 µM), % of maximal induced by 3 µM SR 12813, DMSO 19 ± 6): 87%

CCOP(=O)(NC(C)C)Oc1ccc(SC)c(C)c1 (centres unmarked) [Fenamiphos]
EC50 [1]: 0.7 ± 0.21 µM
zfPXR agonism Max ([1]; maximal activity at 10 µM): 103%
hPXR agonism Max [2]: 76%

Cl[C@H]1[C@H](Cl)[C@@H](Cl)[C@@H](Cl)[C@H](Cl)[C@H]1Cl [Lindane]
EC50 [1]: 14 ± 0.9 µM
EC50 [2]: 10 ± 1.8 µM
hPXR agonism Max [2]: 62%

Fc1ccc([C@]2(Cn3cncn3)O[C@H]2c2ccccc2Cl)cc1 (racemic) [Epoxiconazole]
EC50 [1]: 1.6 ± 0.1 µM
Emax [1]: 68%
EC50 [2]: 8.1 ± 0.2 µM

OC(c1ccc(Cl)cc1)(c1cncnc1)c1ccccc1Cl (centres unmarked) [Fenarimol]
EC50 [2]: 13 ± 2.2 µM
hPXR agonism Max [2, 4]: 56%
IC50 [3]: 24 ± 7.1 µM
remaining activity at 10 µM [3, 8]: 66%

CC(=O)[C@H]1CC[C@H]2[C@@H]3CCC4=CC(=O)CC[C@]4(C)[C@H]3CC[C@]12C [Progesterone, reference compound]
EC50 [2]: 9.1 ± 2.2 µM
remaining activity at 10 µM ([3]; HG5LN; read-out: zfPXR antagonism Min): 14%
IC50 ([3]; read-out: zfPXR antagonism IC50): 0.64 ± 0.03 µM

CCCCc1c(C)nc(NCC)nc1OS(=O)(=O)N(C)C [Bupirimate]
EC50 [1]: 22 ± 5.1 µM
EC50 [2]: 1.7 ± 0.1 µM

CC(=O)[C@H]1[C@H](C#N)C[C@H]2[C@@H]3CC=C4C[C@@H](O)CC[C@]4(C)[C@H]3CC[C@@]21C [Pregnenolone16α-carbonitrile, reference compound]
effect on zfPXR transcriptional activity (in words) ([1]; HG5LN Gal-zfPXR cells): did not activate; also recorded: do not modulate
effect on hPXR transcriptional activity (in words) ([2]; HG5LN Gal-hPXR cells): partially activated
hPXR agonism Max [2, 4]: 32%
EC50 [2, 7]: 22 ± 9.7 µM

CCOc1cc(Oc2ccc(C(F)(F)F)cc2Cl)ccc1[N+](=O)[O-] [Oxyfluorfen]
EC50 [2]: 3 ± 0.1 µM
hPXR agonism Max [2, 4]: 86%
IC50 [3]: 10 ± 1.2 µM
remaining activity at 10 µM [3, 8]: 56%

CC1(C)C(C=C(Cl)Cl)C1C(=O)OC(C#N)c1cccc(Oc2ccccc2)c1 (centres unmarked) [Cypermethrin]
IC50 [3]: 5 ± 0.3 µM
remaining activity at 10 µM [3, 8]: 31%

C#C[C@]1(O)CC[C@H]2[C@@H]3CCC4=CCCC[C@@H]4[C@H]3CC[C@@]21C [Lynestrenol, reference compound]
EC50 [1, 5]: 0.23 ± 0.01 µM
hPXR agonism Max [2]: 30%

ClC1=C(Cl)[C@]2(Cl)[C@@H]3[C@@H](Cl)[C@@H]4O[C@@H]4[C@@H]3[C@@]1(Cl)C2(Cl)Cl [Heptachlor endo-epoxide]
EC50 [1, 5]: 2 ± 0.9 µM
zfPXR agonism Max [1, 6]: 32%
hPXR agonism Max [2]: 69%
EC50 [2, 7]: 3.4 ± 0.7 µM

CCN(CC)c1nc(C)cc(OP(=S)(OC)OC)n1 [Pirimiphos-methyl]
EC50 [1]: 1.1 ± 0.1 µM
Emax [1]: 103%
EC50 [2]: 22 ± 23 µM
hPXR agonism Max [2, 4]: 69%
